# Experimental data reported in patent EP0934745B1, “Use of androsterone derivatives for inhibiting DNA binding of ap-1 and airway smooth muscle proliferation” (CHARLOTTE-MECKLENBURG HOSPITAL doing business as Carolinas …, priority 1998, dated 1999).
# pIC50: −log10 of the molar value.
# System: rat tracheal smooth muscle
# Test: Proliferation of cultured airway smooth muscle (MTT reduction, cell counts)
# Format: cell-based
# Settings: Rattus norvegicus; 50,000 cells/well cultured in 10% FBS for 48 hours; MTT reduction (Figure 3D); read-out: 50% inhibitory concentration
# Description: Polyclonal horseradish peroxidase anti-rabbit IgG was from Transduction Laboratories (Lexington, KY). M-MLV reverse transcriptase was from Life Technologies (Gaithersburg, MD). All other materials were obtained from Sigma unless specified. Measurement of Cultured Airway Smooth Muscle Proliferation. Rat tracheal smooth muscle was cultured by euthanizing rats with pentobarbital overdose and removal of their tracheas. The posterior tracheal membrane was isolated, minced and digested twice for 30 minutes at 37°C. in HBSS containing 0.2% type IV collagenase and 0.05% type IV elastase. Each enzyme digest was collected and centrifuged for 5 minutes at 500 g at room temperature. The supernatant was removed and the pellet was resuspended in DMEM supplemented with 10% FBS, nonessential amino acids, penicillin (100 U/ml), streptomycin (100 µg/ml) and amphotericin (250 ng/ml). Cells were seeded in this medium into 25-cm^2 flasks at 2 x 10^5 cells per flask and incubated in a humidified atmosphere of 5% CO2/95% air at 37°C. Upon reaching confluence, cells were detached with 0.25% trypsin-0.002% EDTA solution for passage.
# Proliferation of cultured airway smooth muscle was quantitated using modification of a previously reported colorimetric method based upon metabolic reduction of the soluble yellow tetrazolium dye 3-[4,5-dimethylthiazol]-2yl-2,5-diphenyl tetrazolium bromide (MTT) to its insoluble purple formazan by the action of mitochondrial succinyl dehydrogenase. See Hirst, S.J., Barnes, P.J., and Twort, C.H.C., "Quantifying proliferation of cultured human and rabbit airway smooth muscle in response to serum and platelet derived growth factor," Am. J. Respir. Cell Mol. Biol., 7, 574-581 (1992). This assay empirically distinguishes between dead and living cells. For proliferation studies, cells were seeded into 24-well uncoated plastic plates at 15,000-50,000 cells per well and cultured with DMEM and mitogens. After 24-96 hours the medium was replaced with 1 ml/well fresh DMEM containing 100 µg/ml MTT and 0.5% FBS, and plates were incubated an additional hour MTT-containing medium was removed, cells were washed twice with 1 ml of sterile Dulbecco's modified phosphate buffered saline without Ca^2+ or Mg^2+ (DPBS), 0.5 ml dimethylsulfoxide (DMSO) was added to each well, and the absorbance of the solubilized purple formazan dye was measured at 540 nm on a Shimadzu UV160U spectrophotometer. A total of 4-6 wells was studied at each treatment condition.
# The optimum concentration of FBS for use as a mitogenic stimulus was determined by incubating 15,000 cells per well with DMEM containing 0.25, 1.0, 5.0 or 10.0% FBS and MTT reduction was determined after 24, 48, 72 or 96 hours. […] After 24 hours, cells were washed twice with DPBS, fixed and permeabilized by two sequential 5 minute exposures to ice-cold methanol, stained with Giemsa-modified Wright's stain for 3 minutes and washed with DPBS. Cell counts were performed on 10 random fields at 40 power using a 0.01-cm^2 ocular grid. Cell Culture Treatments for Measurement of Airway Smooth Muscle Proliferation. The effect of dehydroepiandrosterone (DHEA) and 16α-bromoepiandrosterone (16α-BrEA) on cellular proliferation was studied in cultures stimulated with 0.5-10% FBS or 1-50 ng/ml recombinant human platelet derived growth factor (PDGF-AA). […] See, for example, the method of Le, Y. Y. , and Xu, R.B., "The molecular mechanism of the action of the pharmacological doses of glucocorticoids. Studies on the low-affinity glucocorticoid receptor," Receptor, 5, 63-69 (1995).
structure (smiles),measurement,value
"C[C@@H]1C[C@H]2[C@@H]3CCC4=CC(=O)C=C[C@]4(C)[C@@]3(F)[C@@H](O)C[C@]2(C)[C@@]1(O)C(=O)CO [dexamethasone, reference compound]",pIC50,5.00
